Data on ten compounds can be found in publication PMC8861642, “Cryo-electron microscopy reveals how acetogenins inhibit mitochondrial respiratory complex I” (The Journal of Biological Chemistry, 2022).

Read-outs that look alike come from different tables or passages of the source.

For test [1], the target named is T1, mouse complex I (Mus musculus, UniProt P03888+Q91WD5+Q9DC70).
T1 construct: hearts were obtained from C57BL/6 mice; from tissue; host or cells: heart mitochondria of C57BL/6 mice
As to the kind of experiment: NADH:DQ assay of purified compound 1-copurified mouse complex I, initial rates against control sample. The conditions noted are these: first 25 s, 5 μM DQ, 0.5 μg ml−1 AOX, 200 μM NADH; after copurification with 200 μM compound 1 and size-exclusion chromatography; SD, n = 3 technical repeats; read-out: inhibition of initial rates (proportion of complex I molecules containing the inhibitor). The format is biochemical. The procedure: To better understand the mode of acetogenin binding to complex I, the inhibitor-bound enzyme was prepared for cryo-EM analysis. The acetogenin ortholog inhibitor selected for study here is compound 1; it contains a γ-lactone group, a 12-carbon aliphatic chain (linker) that connects the γ-lactone to a central hydroxylated bis-tetrahydrofuran (THF) group, and a final 10-carbon aliphatic extension (tail) (Figs. 1 and 2). […] Furthermore, substrates (NADH and decylubiquinone, DQ) were added alongside to stimulate complex I turnover, along with an alcohol dehydrogenase and an alternative oxidase for substrate regeneration, to ensure exposure of the high-affinity binding site that may only be present in specific intermediates. Excess compound 1, substrates, and regenerating enzymes were then removed by size-exclusion chromatography to eliminate nonspecifically bound inhibitor molecules. […]
After ∼5 min at 4 °C incubation, 20 μl of the mixture was removed as a control, and the remaining sample was added to glass vials containing enough dried compound 1, from an ethanol stock, to give a final 200 μM of compound 1, resuspended with gentle pipetting. […] The specific activity of the control [measured in 0.15% asolectin (20 % soy PC), 0.15% CHAPS, and 200 μM DQ] was 9.6 ± 0.4 μmol min^−1 mg^−1.
(In general: SEC sorts molecules by how far they enter the pores of the column.)

Test [2] deals with complex I (NADH:ubiquinone oxidoreductase) in bovine submitochondrial particles. As to conditions: internal bullatacin control, cited from earlier work.
The mark [3] stands for this setting: ref 33, read-out: IC50* (complex I inhibition).
The mark [4] stands for this setting: ref 34, read-out: IC50† (complex I inhibition).

For orientation: inhibition means the share of the control response that was lost under treatment. By IC50 is commonly meant the concentration that inhibits the measured activity by half. As for `CCCCCCCCCCC(O)C1CCC(C2CCC(C(O)CCCCCCCCCCCCC3=CC(C)OC3=O)O2)O1` (centres unmarked) [Compound 1], the inhibition at 200 µM in test [1] stood at 77 ± 5%. The IC50 in test [2] (setting [3]) is 1.3 nM; in test [2] (setting [4]), 1.3 ± 0.1 nM.
On to `CCCCCCCCCCC(O)C1CCC(C2CCC(C(O)CCCCCCCCCCCCC3=CCOC3=O)O2)O1` (centres unmarked) [Compound 2], for which the IC50 in test [2] (setting [3]) was 1.2 ± 0.1 nM.
Consider `CCCCCCCCCCC(O)C1CCC(C2CCC(C(O)CCCCCCCCCCCCC3=CCC(C)OC3=O)O2)O1` (centres unmarked) [Compound 3], for which the IC50 in test [2] (setting [3]) was 1.3 ± 0.1 nM.
As to `CCCCCCCCCCC(O)C1CCC(C2CCC(C(CCCCCCCCCCCCC3=CC(C)OC3=O)OC(C)=O)O2)O1` (centres unmarked) [Compound 7], the IC50 in test [2] (setting [3]) is 2.1 nM.
As for `CCCCCCCCCCC(OC(C)=O)C1CCC(C2CCC(C(CCCCCCCCCCCCC3=CC(C)OC3=O)OC(C)=O)O2)O1` (centres unmarked) [Compound 8], in test [2] (setting [3]), the IC50 is 7.2 nM.
As for `CC1C=C(CCCCCCCCCCCCC(O)C2CCC(C3CCC(C(O)CCCCCCCCCCCCC4=CC(C)OC4=O)O3)O2)C(=O)O1` (centres unmarked) [Compound 9], the IC50 in test [2] (setting [4]) is 1.2 nM.
As for `CC1C=C(CCCCCCCCCCCCC(O)C2CCC(C3CCC(C(O)CCCCCCCCCCCCC4=CC(C)OC4=O)O3)O2)C(=O)O1` (centres unmarked) [Compound 11], in test [2] (setting [4]), the IC50 is 1.2 ± 0.2 nM.
As for `CC(=O)OC(CCCCCCCCCCCCC1=CC(C)OC1=O)C1CCC(C2CCC(C(O)CCCCCCCCCCCCC3=CC(C)OC3=O)O2)O1` (centres unmarked) [Compound 12], the IC50 in test [2] (setting [4]) is 2 ± 0.2 nM.
As to `CC(=O)OC(CCCCCCCCCCCCC1=CC(C)OC1=O)C1CCC(C2CCC(C(CCCCCCCCCCCCC3=CC(C)OC3=O)OC(C)=O)O2)O1` (centres unmarked) [Compound 13], the IC50 in test [2] (setting [4]) was 18 ± 2 nM. Moreover, the “IC50† (complex I inhibition)” value in test [2] (ref 34) is reported as “maintains its high affinity”.
bullatacin [reference compound]: the IC50 in test [2] (setting [3]) was 0.9 ± 0.2 nM; in test [2] (setting [4]), 1.2 ± 0.2 nM.
